# Values quoted from earlier work, collected in patent publication US20080097335A1, “OCULAR IMPLANT DELIVERY ASSEMBLIES” (ALLERGAN, INC., priority 2006, published 2008).
# Conditions: efficacy in vivo; 25 mg dose of hydrocortisone equivalent to 1 mg dose of dexamethasone
compound,measurement,value
C[C@]12CCC(=O)C=C1CC[C@@H]1[C@@H]2[C@@H](O)C[C@@]2(C)[C@H]1CC[C@]2(O)C(=O)CO [hydrocortisone],potency relative to dexamethasone,approximately twenty-five fold less potent than dexamethasone
